Measured values reported in patent publication US20230114241A1, “METHODS OF TREATING EPILEPSY USING THE SAME” (Trevena, Inc., priority 2019, published 2023).

Molecular target: human sphingosine-1-phosphate receptor 1 (S1P1) (Homo sapiens, UniProt P21453)
Assay: Inhibition of cAMP production (HTRF cAMP HiRange), S1P1 CHO-K1 cells
Type: cell-based
Settings: inhibition of cAMP production, S1P1; read-out: hS1P1 CAMP pEC50 (converted)
Summary of the method: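 Intracellular cAMP changes read by TR-FRET (HTRF HiRange, 1 h room temperature) after 30 min compound exposure at 37 °C. Cells: overnight-plated CHO-K1 stably expressing tagged human S1P1 with EA-β-arrestin2. Responses normalized to fingolimod.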

human sphingosine-1-phosphate receptor 1 (S1P1), sequence (P21453 whole entry): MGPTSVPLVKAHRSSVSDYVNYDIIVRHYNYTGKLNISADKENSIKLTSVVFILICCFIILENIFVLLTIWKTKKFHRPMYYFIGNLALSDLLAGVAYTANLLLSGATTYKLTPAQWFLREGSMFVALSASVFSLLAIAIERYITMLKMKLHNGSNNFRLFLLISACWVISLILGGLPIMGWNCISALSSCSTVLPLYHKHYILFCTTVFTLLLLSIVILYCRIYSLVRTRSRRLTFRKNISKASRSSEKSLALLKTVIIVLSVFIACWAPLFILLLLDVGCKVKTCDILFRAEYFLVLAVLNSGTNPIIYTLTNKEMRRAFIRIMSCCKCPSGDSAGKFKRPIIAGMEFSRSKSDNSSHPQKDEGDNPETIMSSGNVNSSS

| SMILES | EC50 |
| --- | --- |
| CC(C)n1ccc2cc(-c3nc(-c4ccccc4F)cs3)ccc21 [Compound 403, 4-(2-fluorophenyl)-2-(1-isopropylindol-5-yl)thiazole] | > 316 nM |
| CC(C)n1nnc2cc(-c3nc(-c4ccccc4C(F)(F)F)co3)ccc21 [Compound 432, 1-(propan-2-yl)-5-{4-[2-(trifluoromethyl)phenyl]-1,3-oxazol-2-yl}-1H-1,2,3-benzotriazole] | < 316 nM |
| Cc1ccccc1-c1coc(-c2ccc3c(c2)nnn3C(C)C)n1 [Compound 433, 5-[4-(2-methylphenyl)-1,3-oxazol-2-yl]-1-(propan-2-yl)-1H-1,2,3-benzotriazole] | < 316 nM |
| CC(C)n1nnc2cc(-c3nc4c(o3)CCCc3ccccc3-4)ccc21 [Compound 434, 4-[1-(propan-2-yl)-1H-1,2,3-benzotriazol-5-yl]-5-oxa-3-azatricyclo[8.4.0.0^2,6] tetradeca-1(14),2(6),3,10,12-pentaene] | > 316 nM |
| COc1cc(C)c2nc(-c3ccc4c(c3)nnn4C(C)C)oc2c1 [Compound 436, 2-(1-isopropyl-1H-benzo[d][1,2,3]triazol-5-yl)-6-methoxy-4-methylbenzo[d]oxazole] | < 316 nM |
| Cc1ccc2oc(-c3ccc4c(c3)nnn4CC(C)C)nc2c1 [Compound 437, 2-(1-isobutyl-1H-benzo[d][1,2,3]triazol-5-yl)-5-methyl-benzo[d]oxazole] | < 316 nM |
| CC(C)n1nnc2cc(-c3nc(-c4ccccc4N)co3)ccc21 [Compound 438, 2-{2-[1-(propan-2-yl)-1H-1,2,3-benzotriazol-5-yl]-1,3-oxazol-4-yl}aniline] | < 316 nM |
| Cc1ccncc1-c1noc(-c2ccc3c(c2)nnn3C2CCOCC2)n1 [Compound 439, 5-[3-(4-methylpyridin-3-yl)-1,2,4-oxadiazol-5-yl]-1-(oxan-4-yl)-1H-1,2,3-benzotriazole] | > 316 nM |

Results, then the compound that gave them:

| EC50 | SMILES |
| --- | --- |
| > 316 nM | COc1cccc(-c2coc(-c3ccc4c(c3)nnn4C(C)C)n2)c1 [Compound 385, 5-[4-(3-methoxyphenyl)-1,3-oxazol-2-yl]-1-(propan-2-yl)-H-1,2,3-benzotriazole] |
| < 316 nM | Cc1cccc2oc(-c3ccc4c(c3)nnn4C(C)C)nc12 [Compound 418, 2-(1-isopropyl-1H-benzo[d][1,2,3]triazol-5-yl)-4-methyl-benzo[d]oxazole] |
| < 316 nM | Cc1ccc2oc(-c3ccc4c(c3)nnn4C(C)C)nc2c1 [Compound 419, 2-(1-isopropyl-1H-benzo[d][1,2,3]triazol-5-yl)-5-methyl-benzo[d]oxazole] |
| < 316 nM | Cc1ccc2nc(-c3ccc4c(c3)nnn4C(C)C)oc2c1 [Compound 420, 2-(1-isopropyl-1H-benzo[d][1,2,3]triazol-5-yl)-6-methyl-benzo[d]oxazole] |
| > 316 nM | Cc1cccc2nc(-c3ccc4c(c3)nnn4C(C)C)oc12 [Compound 421, 2-(1-isopropyl-1H-benzo[d][1,2,3]triazol-5-yl)-7-methyl-benzo[d]oxazole] |
| < 316 nM | COc1cccc2oc(-c3ccc4c(c3)nnn4C(C)C)nc12 [Compound 424, 2-(1-isopropyl-1H-benzo[d][1,2,3]triazol-5-yl)-4-methoxy-benzo[d]oxazole] |
| < 316 nM | COc1ccc2nc(-c3ccc4c(c3)nnn4C(C)C)oc2c1 [Compound 426, 2-(1-isopropyl-1H-benzo[d][1,2,3]triazol-5-yl)-6-methoxy-benzo[d]oxazole] |
| > 316 nM | CC(C)n1nnc2cc(-c3nc4c(Cl)cccc4o3)ccc21 [Compound 427, 4-chloro-2-(1-isopropyl-1H-benzo[d][1,2,3]triazol-5-yl)benzo[d]oxazole] |
| > 316 nM | CC(C)n1nnc2cc(-c3nc4c(Br)cccc4o3)ccc21 [Compound 428, 4-bromo-2-(1-isopropylbenzotriazol-5-yl)-1,3-benzoxazole] |

Same assay, conditions: inhibition of cAMP production; potency; read-out: hS1P1 CAMP pEC50 (converted)

| SMILES | EC50 |
| --- | --- |
| COC(=O)NS(=O)(=O)n1c(=O)oc2cc(-c3nnc(-c4ccccc4OC)o3)ccc21 [Compound 342, methyl N-({6-[5-(2-methoxyphenyl)-1,3,4-oxadiazol-2-yl]-2-oxo-2,3-dihydro-1,3-benzoxazol-3-yl}sulfonyl)carbamate] | > 316 nM |
| N#Cc1cc(-c2nc(-c3ccc4c(c3)CCC(=O)N4)no2)ccc1NCCF [Compound 343, 2-[(2-fluoroethyl)amino]-5-[3-(2-oxo-1,2,3,4-tetrahydroquinolin-6-yl)-1,2,4-oxadiazol-5-yl]benzonitrile] | < 316 nM |
| N#Cc1cc(-c2nc(-c3ccc4c(c3)CCC(=O)N4)no2)ccc1NCC(F)F [Compound 344, 2-[(2,2-difluoroethyl)amino]-5-[3-(2-oxo-1,2,3,4-tetrahydroquinolin-6-yl)-1,2,4-oxadiazol-5-yl]benzonitrile] | < 316 nM |
| N#Cc1cc(-c2nc(-c3ccc4c(c3)CCC(=O)N4)no2)ccc1N [Compound 345, 2-amino-5-[3-(2-oxo-1,2,3,4-tetrahydro-quinolin-6-yl)-1,2,4-oxadiazol-5-yl]benzonitrile] | > 316 nM |
| C=C(F)CNc1ccc(-c2nc(-c3ccc4c(c3)CCC(=O)N4)no2)cc1C#N [Compound 346, 2-[(2-fluoroprop-2-en-1-yl)amino]-5-[3-(2-oxo-1,2,3,4-tetrahydro-quinolin-6-yl)-1,2,4-oxadiazol-5-yl]benzonilrile] | < 316 nM |
| CC(F)(F)CNc1ccc(-c2nc(-c3ccc4c(c3)CCC(=O)N4)no2)cc1C#N [Compound 347, 2-[(2,2-difluoropropyl)amino]-5-[3-(2-oxo-1,2,3,4-tetrahydro-quinolin-6-yl)-1,2,4-oxadiazol-5-yl]benzonitrile] | < 316 nM |
| CC(F)CNc1ccc(-c2nc(-c3ccc4c(c3)CCC(=O)N4)no2)cc1C#N (stereo not drawn) [Compound 348, 2-[(2-fluoropropyl)amino]-5-[3-(2-oxo-1,2,3,4-tetrahydroquinolin-6-yl)-1,2,4-oxadiazol-5-yl]benzonitrile] | < 316 nM |
| COc1ccccc1-c1nnc(-c2ccc3[nH]c(=O)oc3c2)o1 [Compound 349, 6-[5-(2-methoxyphenyl)-1,3,4-oxadiazol-2-yl]-2,3-dihydro-1,3-benzoxazol-2-one] | < 316 nM |
| COc1ccccc1-c1nnc(-c2ccc3c(c2)oc(=O)n3C)o1 [Compound 350, 6-[5-(2-methoxyphenyl)-1,3,4-oxadiazol-2-yl]-3-methyl-2,3-dihydro-1,3-benzoxazol-2-one] | > 316 nM |
| CC(C)Nc1ccc(-c2nnc(-c3ccc4[nH]ncc4c3)o2)cc1C#N [Compound 351, 5-[5-(1H-indazol-5-yl)-1,3,4-oxadiazol-2-yl]-2-[(propan-2-yl)amino]benzonitrile] | < 316 nM |
| N#Cc1cc(-c2nnc(-c3ccc4[nH]ncc4c3)o2)ccc1NCC1CC1 [Compound 352] | < 316 nM |
| N#Cc1cc(-c2nnc(-c3ccc4[nH]ncc4c3)o2)ccc1NCCF [Compound 353, 2-[(2-fluoroethyl)amino]-5-[5-(1H-indazol-5-yl)-1,3,4-oxadiazol-2-yl]benzonitrile] | < 316 nM |
| N#Cc1cc(-c2nnc(-c3ccc4[nH]ncc4c3)o2)ccc1NCC(F)F [Compound 354, 2-[(2,2-difluoro-ethyl)amino]-5-[5-(1H-indazol-5-yl)-l,3,4-oxadiazol-2-yl]benzonitrile] | < 316 nM |
| N#Cc1cc(-c2nnc(-c3ccc4[nH]cnc4c3)o2)ccc1NCC1CC1 [Compound 357, 5-[5-(1H-1,3-benzo-diazol-5-yl)-1,3,4-oxadiazol-2-yl]-2-[(cyclopropylmethyl)amino]benzonitrile] | < 316 nM |
| N#Cc1cc(-c2nnc(-c3ccc4[nH]cnc4c3)o2)ccc1NCCF [Compound 358, 5-[5-(1H-1,3-benzo-diazol-5-yl)-1,3,4-oxadiazol-2-yl]-2-[(2-fluoroethyl)amino] benzonitrile] | < 316 nM |
| N#Cc1cc(-c2nnc(-c3ccc4[nH]cnc4c3)o2)ccc1NCC(F)F [Compound 359, 5-[5-(1H-1,3-benzo-diazol-5-yl)-1,3,4-oxadiazol-2-yl]-2-[(2,2-difluoroethyl)amino] benzonitrile] | < 316 nM |

The remaining lines, values ahead:

| EC50 | SMILES |
| --- | --- |
| < 316 nM | CC(C)n1ncc2cc(-c3nc(-c4ccccc4Cl)no3)ccc21 [Compound 330, 3-(2-chlorophenyl)-5-(1-isopropyl-1H-indazol-5-yl)-1,2,4-oxadiazole] |
| < 316 nM | CC(C)n1ncc2cc(-c3nc(-c4ccccc4OC(F)(F)F)no3)ccc21 [Compound 331, 5-(1-isopropyl-1H-indazol-5-yl)-3-(2-(trifluoro-methoxy)phenyl)-1,2,4-oxadiazole] |
| < 316 nM | CC(C)n1ncc2cc(-c3nc(-c4ccccc4Br)no3)ccc21 [Compound 332, 3-(2-bromophenyl)-5-(1-isopropyl-1H-indazol-5-yl)-1,2,4-oxadiazole] |
| < 316 nM | CC(C)n1ncc2cc(-c3nc(-c4ccccc4O)no3)ccc21 [Compound 333, 2-(5-(1-isopropyl-1H-indazol-5-yl)-1,2,4-oxadiazol-3-yl)phenol] |
| > 316 nM | CC(C)Oc1ccccc1-c1noc(-c2ccc3c(cnn3C(C)C)c2)n1 [Compound 334, 3-(2-isopropoxy-phenyl)-5-(1-isopropyl-1H-indazol-5-yl)-1,2,4-oxadiazole] |
| > 316 nM | COc1cccc(OC)c1-c1noc(-c2ccc3c(cnn3C(C)C)c2)n1 [Compound 335, 3-(2,6-dimethoxy-phenyl)-5-(1-isopropylindazol-5-yl)-1,2,4-oxadiazole] |
| < 316 nM | CC(C)n1ncc2cc(-c3nc(-c4cccc5c4OCO5)no3)ccc21 [Compound 336, 3-(benzo[d][1,3]dioxol-4-yl)-5-(1-isopropyl-1H-indazol-5-yl)-1,2,4-oxadiazole] |
| < 316 nM | CC(C)n1ncc2cc(-c3nc(-c4cccc5c4OCCC5)no3)ccc21 [Compound 337, 3-chroman-8-yl-5-(1-isopropylindazol-5-yl)-1,2,4-oxadiazole] |
| > 316 nM | COc1cccc(F)c1-c1noc(-c2ccc3c(cnn3C(C)C)c2)n1 [Compound 338, 3-(2-fluoro-6-methoxy-phenyl)-5-(1-isopropyl-indazol-5-yl)-1,2,4-oxadiazole] |
